Results published in ChEMBL document CHEMBL1201862, “PubChem BioAssay data set” (2004).
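Dose response: 5 concentrations. Exposure: 48 h. Format: 96-well plates. Endpoint: linear interpolation; highest concentration if not reached. GI50 = concentration required for 50% inhibition of growth.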 Calls of active or inactive are those of the source. No stated cut-off is given here; in the data, active = GI50 up to about 1.1 µM and inactive = higher.

What was measured:
Test in all cases: DTP human tumour cell line panel, 48 h
[1] = tested on: SF-539
[2] = tested on: OVCAR-8
[3] = tested on: OVCAR-3
[4] = tested on: NCI-H460
[5] = tested on: K562
[6] = tested on: NCI-H522
[7] = tested on: DLD-1
[8] = tested on: COLO 205
[9] = tested on: EKVX
[10] = tested on: SF-268
[11] = tested on: SR
[12] = tested on: SK-OV-3
[13] = tested on: A498
[14] = tested on: SK-MEL-28
[15] = tested on: IGROV-1
[16] = tested on: SW-620
[17] = tested on: RPMI-8226
[18] = tested on: RXF 393

Measured: GI50

COc1ccc2c(c1)C(=O)C1CC(=O)CCC21 (stereo not drawn)
inactive: [1] > 100 µM | [2] > 100 µM | [3] > 100 µM | [4] > 100 µM | [5] > 100 µM | [6] > 100 µM | [7] > 100 µM | [8] > 100 µM | [9] > 100 µM | [10] > 100 µM | [11] > 100 µM | [12] > 100 µM | [13] > 100 µM | [14] > 100 µM | [15] > 100 µM | [16] > 100 µM | [17] > 100 µM

CCCCOC(=O)CNC(=O)OC/C=C/C#CC#C/C=C/COC(=O)NCC(=O)OCCCC
inactive: [1] > 10 µM | [2] > 10 µM | [3] > 10 µM | [4] > 10 µM | [5] > 10 µM | [6] > 10 µM | [18] > 10 µM | [7] > 10 µM | [8] > 10 µM | [9] > 10 µM | [10] > 10 µM | [11] > 10 µM | [12] > 10 µM | [13] > 10 µM | [14] > 10 µM | [15] > 10 µM | [16] > 100 µM | [17] > 10 µM

CCNC(=O)COc1ccc(Cl)c(C)c1
inactive: [1] > 100 µM | [3] > 100 µM | [4] > 100 µM | [5] > 100 µM | [6] > 100 µM | [18] > 100 µM | [7] > 100 µM | [8] > 100 µM | [10] > 100 µM | [11] > 100 µM | [12] > 100 µM | [13] > 100 µM | [14] > 100 µM | [15] > 100 µM | [16] > 100 µM | [17] > 100 µM

Cn1ncc2ccc3[nH]c4ccccc4c(=O)c3c21
inactive: [2] 28.1 µM | [3] 37.3 µM | [4] 28.7 µM | [5] 31.6 µM | [6] 17.5 µM | [18] 14.7 µM | [7] 27.5 µM | [8] 26.4 µM | [9] 42 µM | [10] 28.4 µM | [11] 29.9 µM | [12] 50.7 µM | [13] 22.4 µM | [14] 36.3 µM | [15] 39.9 µM | [16] 26.2 µM | [17] 22.5 µM

O=C(/C(=C/c1ccc(Cl)cc1)c1ccccc1)c1ccccc1
inactive: [1] 17.4 µM | [2] 20.3 µM | [4] 17.7 µM | [5] 27.4 µM | [6] 14.2 µM | [7] 15.2 µM | [8] 18.8 µM | [9] 26.5 µM | [10] 18.2 µM | [11] 19.9 µM | [12] 23.9 µM | [13] 23.6 µM | [14] 16.9 µM | [15] 18.7 µM | [16] 17.4 µM | [17] 18.5 µM

CC1(c2cccc(N)c2)C2C(=O)NC(=O)C1C(=O)NC2=O (stereo not drawn)
inactive: [1] 28.6 µM | [2] 35.9 µM | [3] 21.7 µM | [4] 33 µM | [5] 24.2 µM | [6] 19.7 µM | [18] 26.1 µM | [7] 34.7 µM | [8] 23.7 µM | [9] 45 µM | [10] 35.7 µM | [12] 23.9 µM | [13] 23.4 µM | [14] 38.6 µM | [15] 44.3 µM | [16] 34 µM | [17] 16 µM

O=C1OC(=O)C23CSCC12C1C=CC3O1 (stereo not drawn)
inactive: [1] > 100 µM | [2] > 100 µM | [3] > 100 µM | [4] > 100 µM | [5] > 100 µM | [6] > 100 µM | [18] > 100 µM | [7] > 100 µM | [8] > 100 µM | [9] > 100 µM | [10] > 100 µM | [12] > 100 µM | [13] > 100 µM | [14] > 100 µM | [15] > 100 µM | [16] > 100 µM | [17] > 100 µM

O=C(Cc1ccccc1)N/N=C(/c1nc2ccc([N+](=O)[O-])cc2nc1O)C(O)c1ccccc1Cl (stereo not drawn)
inactive: [1] > 100 µM | [2] > 100 µM | [4] > 100 µM | [5] > 100 µM | [6] 6.28 µM | [7] > 100 µM | [8] > 100 µM | [9] > 100 µM | [10] > 100 µM | [11] > 100 µM | [12] > 100 µM | [13] > 100 µM | [14] > 100 µM | [15] > 100 µM | [16] 89.9 µM | [17] > 100 µM

N#CC1CC2(C1)OCCS2 (stereo not drawn)
inactive: [1] > 100 µM | [2] > 100 µM | [3] > 100 µM | [4] > 100 µM | [5] > 100 µM | [6] > 100 µM | [18] > 100 µM | [7] > 100 µM | [8] > 100 µM | [9] > 100 µM | [10] > 100 µM | [11] > 100 µM | [13] > 100 µM | [14] > 100 µM | [15] > 100 µM | [16] > 100 µM | [17] > 100 µM

C/C(CN1C(=O)c2ccccc2C1=O)=N\NS(=O)(=O)c1cccc([N+](=O)[O-])c1
inactive: [1] > 100 µM | [2] > 100 µM | [3] > 100 µM | [4] > 100 µM | [5] > 100 µM | [6] > 100 µM | [18] > 100 µM | [7] > 100 µM | [8] > 100 µM | [9] > 100 µM | [10] > 100 µM | [12] > 100 µM | [13] > 100 µM | [14] > 100 µM | [15] > 100 µM | [16] > 100 µM | [17] > 100 µM

C/C(CCn1[nH]c(=O)ccc1=O)=N\NC(=O)C(N)=O
inactive: [1] > 100 µM | [2] > 100 µM | [3] > 100 µM | [4] > 100 µM | [5] > 100 µM | [6] > 100 µM | [18] > 100 µM | [7] > 100 µM | [8] > 100 µM | [9] > 100 µM | [10] > 100 µM | [13] > 100 µM | [14] > 100 µM | [15] > 100 µM | [16] > 100 µM

CCOC(=O)CCC1(C(=O)OCC)CCCCC1=O (stereo not drawn)
inactive: [1] > 100 µM | [2] > 100 µM | [3] > 100 µM | [4] > 100 µM | [5] > 100 µM | [6] > 100 µM | [18] > 100 µM | [7] > 100 µM | [8] > 100 µM | [9] > 100 µM | [10] > 100 µM | [12] > 100 µM | [13] > 100 µM | [14] > 100 µM | [15] > 100 µM | [16] > 100 µM | [17] > 100 µM

Cc1nc(Nc2ccc([N+](=O)[O-])cc2)sc1C(/C=C/c1ccc(N(C)C)cc1)=N/NC(=O)c1ccccc1
inactive: [1] 42.9 µM | [2] > 100 µM | [3] > 100 µM | [4] 59.6 µM | [5] 18.5 µM | [6] 31 µM | [18] 58.6 µM | [7] 55 µM | [8] > 100 µM | [9] 41.2 µM | [10] 43 µM | [11] 41.7 µM | [12] > 100 µM | [14] > 100 µM | [15] 51.3 µM | [16] 45.6 µM

CCOC(=O)c1cn(Cc2ccccc2)c(=O)n1Cc1ccccc1
inactive: [1] > 100 µM | [2] > 100 µM | [3] > 100 µM | [4] > 100 µM | [5] 52 µM | [6] > 100 µM | [18] > 100 µM | [7] > 100 µM | [8] > 100 µM | [9] > 100 µM | [10] > 100 µM | [12] > 100 µM | [13] > 100 µM | [14] > 100 µM | [15] > 100 µM | [16] > 100 µM | [17] 40.2 µM

CC(C)(O)[C@@H]1CC[C@@]2(C)CCCC(O)C2(O)C1 (stereo partly drawn)
inactive: [1] > 100 µM | [2] > 100 µM | [3] > 100 µM | [4] > 100 µM | [5] > 100 µM | [6] > 100 µM | [7] > 100 µM | [8] > 100 µM | [10] > 100 µM | [11] > 100 µM | [12] > 100 µM | [13] > 100 µM | [14] > 100 µM | [15] > 100 µM | [16] > 100 µM | [17] > 100 µM

COc1cc(C=O)c(-c2cc3c(cc2C=O)OCO3)c(OC)c1OC
inactive: [1] 81.8 µM | [2] 117 µM | [3] 56.6 µM | [4] 103 µM | [5] 87.1 µM | [6] 41.8 µM | [18] 63.5 µM | [7] 88.7 µM | [8] 92.5 µM | [9] 178 µM | [10] 101 µM | [11] 93.1 µM | [12] 98.6 µM | [14] 144 µM | [15] 143 µM | [16] 94.6 µM | [17] 96.6 µM

C[C@@H]1C[C@@H]([C@H](O)CC2CC(=O)NC(=O)C2)C(=O)[C@@H](C)C1 [CYCLOHEXIMIDE]
active: [1] 0.0431 µM | [2] 0.044 µM | [3] 0.131 µM | [4] 0.122 µM | [5] 0.0528 µM | [6] 0.0395 µM | [18] 0.0315 µM | [7] 0.0405 µM | [8] 0.0352 µM | [9] 0.0933 µM | [10] 0.0438 µM | [11] 0.0416 µM | [12] 0.127 µM | [14] 0.0352 µM | [15] 0.0532 µM | [16] 0.0462 µM | [17] 0.0362 µM
